Reference: patent US9896441B2 (Lycera Corporation, priority 2014, dated 2018)

What was measured:
Gal4-RORγ-LBD = target: T1, Gal4-RORγ-LBD (Homo sapiens, UniProt P51449); test: Gal4-RORγ Luciferase Reporter Assay in HEK-293T Cells; type: cell-based; conditions: HEK-293 cells, luciferase reporter; for Gal4-RORγ Assay Max Response: maximum response
T1 construct: expressed in transfected cells
T1 sequence (P51449 269-508 limits assumed): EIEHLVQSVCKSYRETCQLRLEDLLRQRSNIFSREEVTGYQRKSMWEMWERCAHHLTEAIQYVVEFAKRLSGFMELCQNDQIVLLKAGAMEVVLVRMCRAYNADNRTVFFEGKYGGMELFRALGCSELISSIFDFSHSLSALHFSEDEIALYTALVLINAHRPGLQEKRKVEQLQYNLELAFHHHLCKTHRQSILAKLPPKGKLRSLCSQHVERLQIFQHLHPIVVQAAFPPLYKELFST
Outline: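 HEK-293 cells were co-transfected with Gal4-RORγ-LBD and a Gal4-luciferase reporter, then exposed overnight at 37 °C to compounds with […] ursolic acid present (0.2% DMSO). Luminescence was read with One-Glo after 10 min at RT, untreated signal was set as 100, and Max Response was taken as the upper plateau of a 4-parameter logistic fit.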

RORγ-LBD = target: T2, RORγ-LBD (Homo sapiens, UniProt P51449); test: RORγ-Ligand Binding Domain (LBD) TR-FRET Assay; type: biochemical; conditions: for TR-FRET Assay Max Response: maximum response;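 on TR-FRET Assay Max Response: 665/615 nm signal ratio set to 100 without ursolic acid or test compound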
T2 construct: made in house; host or cells: SF9 cells (baculovirus); used as diluted lysate
T2 sequence (P51449 269-508 limits assumed): T1 sequence (P51449 269-508 limits assumed)
Outline: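 His-tagged RORγ-LBD from SF9 baculovirus lysate, ~3 nM final, in 50 mM Tris pH 7.0, 50 mM KCl, 1 mM EDTA, 0.1 mM DTT, 0.01% BSA. Biotinylated SRC1 LXXLL peptide at 200 nM final with 2 μM ursolic acid; TR-FRET read-out, 1% DMSO final.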

Row | SMILES | EC50 (Gal4-RORγ-LBD; with ursolic acid) [nM] | EC50 (RORγ-LBD; RORγ-LBD TR-FRET) [nM] | EC50 (Gal4-RORγ-LBD; in presence of ursolic acid) [nM] | Gal4-RORγ Assay Max Response (Gal4-RORγ-LBD; in presence of ursolic acid) | EC50 (RORγ-LBD; RORγ-LBD TR-FRET assay) [nM] | TR-FRET Assay Max Response (RORγ-LBD; RORγ-LBD TR-FRET assay)
1 | CCOc1nn(CC)cc1S(=O)(=O)N1C[C@H](CCC(=O)OC)Oc2ccc(/C=C/c3cccc(Cl)n3)cc21 [Example 89AB, (S,E)-methyl 3-(6-(2-(6-chloropyridin-2-yl)vinyl)-4-((3ethoxy-1-ethyl-1H-pyrazol-4-yl)sulfonyl)-3,4-dihydro-2H-benzo[b][1,4]oxazin-2-yl)propanoate] | > 10000 | 500 to 5000 |  |  |  | 
2 | COC(=O)CC[C@H]1CN(S(=O)(=O)c2cccc(OC(F)F)c2)c2cc(/C=C/c3ccccc3C(F)(F)F)ccc2O1 [Example 89AP, (S,E)-methyl 3-(4-((3-(difluoromethoxy)phenyl)sulfonyl)-6-(2-(trifluoromethyl)styryl)-3,4-dihydro-2H-benzo[b][1,4]-oxazin-2-yl)propanoate] | 500 to 5000 | < 500 |  |  |  | 
3 | C/C(=C\c1ccc2c(c1F)N(S(=O)(=O)c1cccc(OC(F)F)c1)C[C@H](CCC(=O)O)O2)c1c(F)cccc1Cl [Example 64, (S,E)-3-(6-(2-(2-Chloro-6-fluorophenyl)prop-1-en-1-yl)-4-((3-(difluoromethoxy)phenyl)sulfonyl)-5-fluoro-3,4-dihydro-2H-benzo[b][1,4]oxazin-2-yl)propanoic acid] | 500 to 5000 | < 500 |  |  |  | 
4 | C/C(=C\c1cc(F)c2c(c1)N(S(=O)(=O)c1cccc(C(F)(F)F)c1)C[C@H](CCC(=O)O)O2)c1c(F)cccc1Cl [Example 50, (S,E)-3-(6-(2-(2-Chloro-6-fluorophenyl)prop-1-en-1-yl)-8-fluoro-4-((3-(trifluoromethyl)phenyl)sulfonyl)-3,4-dihydro-2H-benzo[b][1,4]oxazin-2-yl)propanoic acid] | < 500 | < 500 |  |  |  | 
5 | COc1cc(S(=O)(=O)N2C[C@H](CNC(C)=O)Oc3c(F)cc(/C=C(\C)c4c(F)cccc4Cl)cc32)ccc1F [Example 108, (S,E)-N-((6-(2-(2-Chloro-6-fluorophenyl)prop-1-en-1-yl)-8-fluoro-4-((4-fluoro-3-methoxyphenyl)sulfonyl)-3,4-dihydro-2H-benzo[b][1,4]oxazin-2-yl)methyl)acetamide] |  |  | < 500 | * (a value in the range of 30 to 90) | < 500 | ** (a value in the range of greater than 90 to 150)
6 | C/C(=C\c1ccc2c(c1)N(S(=O)(=O)c1cc(C(F)(F)F)cnc1OCCO)C[C@H](CCC(=O)N1CCC(C(=O)O)CC1)O2)c1c(F)cccc1Cl [Example 129K, (S,E)-1-(3-(6-(2-(2-chloro-6-fluorophenyl)-prop-1-en-1-yl)-4-((2-(2-hydroxyethoxy)-5-(trifluoromethyl)pyridin-3-yl)sulfonyl)-3,4-dihydro-2H-benzo[b][1,4]oxazin-2-yl)propanoyl)piperidine-4-carboxylic acid] |  |  | 500 to 5000 | ** (a value in the range of greater than 90 to 150) | < 500 | *** (a value in the range of greater than 150 to 200)
7 | COC(=O)CC[C@H]1CN(S(=O)(=O)c2cccc(OC(F)F)c2)c2cc(/C=C(\C)c3c(F)cccc3Cl)c(F)cc2O1 [Example 43, (S,E)-Methyl 3-(6-(2-(2-chloro-6-fluorophenyl)prop-1-en-1-yl)-4-((3-(difluoromethoxy)phenyl)sulfonyl)-7-fluoro-3,4-dihydro-2H-benzo[b][1,4]oxazin-2-yl)propanoate] | < 500 | < 500 |  |  |  | 
8 | C/C(=C\c1ccc2c(c1)N(S(=O)(=O)c1cccc(C(F)(F)F)c1)C[C@H](CCN)O2)c1c(F)cccc1Cl [Example 111, (S,E)-2-(6-(2-(2-Chloro-6-fluorophenyl)prop-1-en-1-yl)-4-((3-(trifluoromethyl)phenyl)sulfonyl)-3,4-dihydro-2H-benzo[b][1,4]oxazin-2-yl)ethan-1-amine] |  |  | 500 to 5000 | ** (a value in the range of greater than 90 to 150) | < 500 | *** (a value in the range of greater than 150 to 200)
9 | CC/C(C)=C\c1ccc2c(c1)N(S(=O)(=O)c1cc(C(F)(F)F)cnc1OCCO)C[C@H](CCC(=O)O)O2 [Example 191D, (S,Z)-3-(4-((2-(2-hydroxyethoxy)-5-(trifluoromethyl)pyridin-3-yl)sulfonyl)-6-(2-methylbut-1-en-1-yl)-3,4-dihydro-2H-benzo[b][1,4]oxazin-2-yl)propanoic acid] |  |  | > 10000 |  | < 500 | ** (a value in the range of greater than 90 to 150)
10 | COC(=O)CC[C@H]1CN(S(=O)(=O)c2cc(F)cc(C(F)(F)F)c2)c2cc(/C=C(\C)c3c(F)cccc3Cl)ccc2O1 [Example 86AR, (S,E)-methyl 3-(6-(2-(2-chloro-6-fluorophenyl)prop-1-en-1-yl)-4-((3-fluoro-5-(trifluoromethyl)-phenyl)sulfonyl)-3,4-dihydro-2H-benzo[b][1,4]oxazin-2-yl)propanoate] | 500 to 5000 | < 500 |  |  |  | 
11 | N#Cc1ccccc1/C=C/c1ccc2c(c1)N(S(=O)(=O)c1cccc(OC(F)F)c1)C[C@H](CCC(=O)O)O2 [Example 89AQ, (S,E)-3-(6-(2-cyanostyryl)-4-((3-(difluoromethoxy)phenyl)sulfonyl)-3,4-dihydro-2H-benzo[b][1,4]oxazin-2-yl)propanoic acid] | 500 to 5000 | < 500 |  |  |  | 
12 | C/C(=C\c1ccc2c(c1)N(S(=O)(=O)c1cccc(C(F)(F)F)c1)C[C@H](OCC(=O)O)C2)c1c(F)cccc1Cl [Example 173E, (R,E)-2-((7-(2-(2-chloro-6-fluorophenyl)prop-1-en-1-yl)-1-((3-(trifluoromethyl)-phenyl)sulfonyl)-1,2,3,4-tetrahydroquinolin-3-yl)oxy)acetic acid] |  |  | 500 to 5000 | ** (a value in the range of greater than 90 to 150) | < 500 | ** (a value in the range of greater than 90 to 150)
13 | COC(=O)CC[C@H]1CN(S(=O)(=O)c2cccc(C(F)(F)F)c2)c2cc(/C(C)=C/c3c(F)cccc3Cl)ccc2O1 [Example 31, (S,E)-Methyl 3-(6-(1-(2-chloro-6-fluorophenyl)prop-1-en-2-yl)-4-((3-(trifluoromethyl)phenyl)sulfonyl)-3,4-dihydro-2H-benzo[b][1,4]oxazin-2-yl)propanoate] | 500 to 5000 | < 500 |  |  |  | 
14 | C/C(=C\c1cc2c(cc1C)O[C@@H](CCC(=O)O)CN2S(=O)(=O)c1cccc(OC(F)F)c1)c1c(F)cccc1Cl [Example 54, (S,E)-3-(6-(2-(2-Chloro-6-fluorophenyl)prop-1-en-1-yl)-4-((3-(difluoromethoxy)phenyl)sulfonyl)-7-methyl-3,4-dihydro-2H-benzo[b][1,4]oxazin-2-yl)propanoic acid] | 500 to 5000 | < 500 |  |  |  | 
15 | CC(C)(O[C@@H]1Cc2ccc(OCc3c(F)cccc3Cl)cc2N(S(=O)(=O)c2cccc(C(F)(F)F)c2)C1)C(=O)O [Example 172, (R)-2-((7-((2-Chloro-6-fluorobenzyl)oxy)-1-((3-(trifluoromethyl)phenyl)sulfonyl)-1,2,3,4-tetrahydroquinolin-3-yl)oxy)-2-methylpropanoic acid] |  |  | 500 to 5000 | ** (a value in the range of greater than 90 to 150) | < 500 | ** (a value in the range of greater than 90 to 150)
16 | C/C(=C\c1ccc2c(c1)N(S(=O)(=O)c1cccc(C(F)(F)F)c1)C[C@H](N)C2)c1c(F)cccc1Cl [Example 164, (R,E)-7-(2-(2-Chloro-6-fluorophenyl)prop-1-en-1-yl)-1-((3-(trifluoromethyl)phenyl)sulfonyl)-1,2,3,4-tetrahydroquinolin-3-amine] |  |  | 500 to 5000 |  | < 500 | 
17 | C/C(=C\c1cc2c(cc1Cl)O[C@@H](CCC(=O)O)CN2S(=O)(=O)c1cccc(OC(F)F)c1)c1c(F)cccc1Cl [Example 48, (S,E)-3-(6-(2-(2-Chloro-6-fluorophenyl)prop-1-en-1-yl)-4-((3-(difluoromethoxy)phenyl)sulfonyl)-7-chloro-3,4-dihydro-2H-benzo[b][1,4]oxazin-2-yl)propanoate] | < 500 | 500 to 5000 |  |  |  | 
18 | COC(=O)CC[C@H]1CN(S(=O)(=O)c2cccc(C(F)(F)F)c2)c2cc(/C=C(\C)c3ccccc3)ccc2O1 [Example 86AB, (S,E)-methyl 3-(6-(2-phenylprop-1-en-1-yl)-4-((3-(trifluoromethyl)-phenyl)sulfonyl)-3,4-dihydro-2H-benzo[b][1,4]oxazin-2-yl)propanoate] | 500 to 5000 | < 500 |  |  |  | 
19 | COC(=O)CC[C@H]1CN(S(=O)(=O)c2ccc(F)c(C(F)(F)F)c2)c2cc(/C=C(\C)c3c(F)cccc3Cl)ccc2O1 [Example 86B, (S,E)-methyl 3-(6-(2-(2-chloro-6-fluorophenyl)prop-1-en-1-yl)-4-((4-fluoro-3-(trifluoromethyl)-phenyl)sulfonyl)-3,4-dihydro-2H-benzo[b][1,4]oxazin-2-yl)propanoate] | < 500 | < 500 |  |  |  | 
